Earlier results in US12329849B2, “Method for dyeing keratinous material, comprising the use of an organosilicon compound, a dyeing compound, a sealing reagent, and a polymer-containing post-treatment agent” (Henkel AG & Co. KGaA, priority 2021, dated 2025).

Row | SMILES | solubility in water (25° C.) | also measured
1 | O=C([O-])c1c(Cl)c(Cl)c(Cl)c(Cl)c1-c1c2c(Br)cc(=O)c(Br)c-2oc2c(Br)c(O)cc(Br)c12.O=C([O-])c1c(Cl)c(Cl)c(Cl)c(Cl)c1-c1c2c(Br)cc(=O)c(Br)c-2oc2c(Br)c(O)cc(Br)c12.[Na+].[Na+] [Acid Red 92, disodium salt of 3,4,5,6-tetrachloro-2-(1,4,5,8-tetrabromo-6-hydroxy-3-oxoxanthen-9-yl)benzoic acid] | greater than 10 g/l | 
2 | O=S(=O)([O-])c1ccc(N=Nc2c(O)ccc3ccccc23)cc1.[Na+] [Acid Orange 7, sodium salt of 4-[(2-hydroxy-1-naphthyl)azo]benzenesulfonate] | more than 7 g/l | 
3 | CCN(Cc1cccc(S(=O)(=O)[O-])c1)c1ccc(C(=C2C=CC(=[N+](CC)Cc3cccc(S(=O)(=O)[O-])c3)C=C2)c2ccccc2S(=O)(=O)[O-])cc1.[Na+].[Na+] [Acid Blue 9] |  | water solubility (25° C.): more than 20 wt %
4 | O=C([O-])C1=NN(c2ccc(S(=O)(=O)[O-])cc2)C(=O)C1N=Nc1ccc(S(=O)(=O)[O-])cc1.[Na+].[Na+].[Na+] (centres unmarked) [Acid Yellow 23, trisodium salt of 4,5-dihydro-5-oxo-1-(4-sulfophenyl)-4-((4-sulfophenyl)azo)-1H-pyrazole-3-carboxylic acid] |  | solubility in water (in words) (at 25° C.): readily soluble
5 | Nc1cc(S(=O)(=O)[O-])cc2cc(S(=O)(=O)[O-])c(N=Nc3ccccc3)c(O)c12.[Na+].[Na+] [Acid Red 33, disodium salt of 5-amino-4-hydroxy-3-(phenylazo)-naphthalene-2,7-disulfonate] | 2500 µg/mL | 
